Literature values, collected in patent publication US7829576B2 (priority 2008, dated 2010).

System: pain intensity
Settings: study completers, double-blind placebo-controlled; cited from earlier work

SMILES	reduction in pain intensity
Fc1ccc([C@@H]2CCNC[C@H]2COc2ccc3c(c2)OCO3)cc1 [paroxetine]	26%
CNCCCC12CCC(c3ccccc31)c1ccccc12 [maprotiline]	45%
